Results reported in US5336673A, “3-substituted cephem compounds” (priority 1990, dated 1994).
In brackets after ≈: the same amount, converted by molar mass.

What was measured:
Enterobacter cloacae P99 = experiment: Antibacterial activity, MIC by Agar dilution method, standard test strain 19; type: cell-based; settings: P99, 18 h
Procedure: (§1) The antibacterial activity was determined by an Agar dilution method as described below.
(§2) That is, the two-fold serial dilutions of the antibacterial compounds (1000 μg compound/ml) were prepared and dispersed in Muller Hinton Agar in a petri dish to a concentration of 100~0.002 μg/ml. The culture broths of standard test strains were inoculated on the medium to a concentration 10^7 CFU/ml, and incubated at 37° C. for 18 hours. The concentration of compounds(I) at which the strains were not grown was regarded as minimum inhibition concentration (MIC).
(§3) The results of antibacterial activity test of the representative examples of the compound (I) against 20 standard test strains shown in terms of MIC were indicated in Table 1.
19. Enterobacter cloacae P99

Escherichia coli O 55 = experiment: Antibacterial activity, MIC by Agar dilution method, standard test strain 7; type: cell-based; settings: Escherichia coli, O55, 18 h
Procedure: as §1, §2, §3

[1] = target: T1, β-lactamase from Enterobacter cloacae P99 (Enterobacter cloacae, UniProt P05364); experiment: Stability against β-lactamase, relative hydrolysis; type: biochemical; settings: Enterobacter cloacae P99 enzyme; 100 μM; relative(percentage), Cephaloridine taken as 100; OD at 260 nm
T1 construct: directly isolated from Enterobacter cloacae P99, E. coli TEM and Citrobacter freundii; endogenous in cells; host or cells: Enterobacter cloacae P99
Procedure: The β-lactamases employed in the test were directly isolated from Enterobacter cloacae P99, E. coli TEM and Citrobacter freundii, and the antibiotics for comparison were Cephaloridine, Cephradine, Cefoperazone and Cefotaxime.
The relative hydrolysis of various compounds were calculated relative to the OD of Cephaloridine.

[2] = tested on: Gram-positive strains, for example, Staphylococcus aureus; experiment: Antibacterial activity against Gram-positive strains (summary in words); type: cell-based; settings: e.g. Staphylococcus aureus resistant to third-generation cephalosporins
Procedure: as §1, §2

Staphyloccus aureus 285 = experiment: Antibacterial activity, MIC by Agar dilution method, standard test strain 5; type: cell-based; settings: 10^7 CFU/ml, 37° C., 18 hours
Procedure: as §1, §2, §3
5. Staphyloccus aureus 285

[3] = tested on: Pseudomonas aeruginosa 9027; experiment: Antibacterial activity, MIC by Agar dilution method, standard test strain 12; type: cell-based; settings: 10^7 CFU/ml, 37° C., 18 hours
Procedure: as §1, §2, §3
12. Pseudomonas aeruginosa 9027

Streptococcus I = experiment: MIC against clinically isolated strains; type: cell-based; settings: 20 clinical isolates
Procedure: as §1, §2

Enterococcus I = experiment: MIC against clinically isolated strains; type: cell-based; settings: 18 h, 20 clinical isolates
Procedure: as §1, §2

Serratia spp = experiment: MIC against clinically isolated strains; type: cell-based; settings: 18 h, 20 clinical isolates
Procedure: as §1, §2

Proteus mirabilis = experiment: MIC against clinically isolated strains; type: cell-based; settings: 18 h, 4 clinical isolates
Procedure: as §1, §2

Escherichia coli = experiment: MIC against clinically isolated strains; type: cell-based; settings: 18 h, 20 clinical isolates
Procedure: as §1, §2

Pseudomonas II = experiment: MIC against clinically isolated strains; type: cell-based; settings: 18 h, 19 clinical isolates
Procedure: as §1, §2

Proteus vulgaris = experiment: MIC against clinically isolated strains; type: cell-based; settings: 18 h, 5 clinical isolates
Procedure: as §1, §2

Pseudomonas I = experiment: MIC against clinically isolated strains; type: cell-based; settings: 18 h, 19 clinical isolates
Procedure: as §1, §2

Streptococcus II = experiment: MIC against clinically isolated strains; type: cell-based; settings: 18 h, 17 clinical isolates
Procedure: as §1, §2

Enterobacter cloacae = experiment: MIC against clinically isolated strains; type: cell-based; settings: 20 clinical isolates
Procedure: as §1, §2

Morganella morganil = experiment: MIC against clinically isolated strains; type: cell-based; settings: 18 h, 5 clinical isolates
Procedure: as §1, §2

D Streptococcus II = experiment: MIC against clinically isolated strains; type: cell-based; settings: 18 h, 20 clinical isolates
Procedure: as §1, §2

Pseudomonas aeruginosa = experiment: MIC against clinically isolated strains; type: cell-based; settings: 18 h, 20 clinical isolates
Procedure: as §1, §2

Enterococcus II = experiment: MIC against clinically isolated strains; type: cell-based; settings: 20 clinical isolates
Procedure: as §1, §2

Providencia rettgeri = experiment: MIC against clinically isolated strains; type: cell-based; settings: 18 h, 6 clinical isolates
Procedure: as §1, §2

D Streptococcus I = experiment: MIC against clinically isolated strains; type: cell-based; settings: 18 h, 20 clinical isolates
Procedure: as §1, §2

[4] = tested on: Enterobacter cloacae 1321E; experiment: Antibacterial activity, MIC by Agar dilution method, standard test strain 20; type: cell-based; settings: Enterobacter cloacae, 1321E, 18 h
Procedure: as §1, §2, §3
20. Enterobacter cloacae 1321E

[5] = tested on: Staphylococcus aureus 503; experiment: Antibacterial activity, MIC by Agar dilution method, standard test strain 6; type: cell-based; settings: 10^7 CFU/ml, 37° C., 18 hours
Procedure: as §1, §2, §3
6. Staphylococcus aureus 503

[6] = tested on: Streptococcus pyogenes A 77; experiment: Antibacterial activity, MIC by Agar dilution method, standard test strain 2; type: cell-based; settings: A77, 10^7 CFU/ml, 37° C., 18 hours
Procedure: as §1, §2, §3
2. Streptococcus pyogenes A 77

Escherichia coli 1507E = experiment: Antibacterial activity, MIC by Agar dilution method, standard test strain 11; type: cell-based; settings: Escherichia coli, 1507E, 18 h
Procedure: as §1, §2, §3

Escherichia coli DC 2 = experiment: Antibacterial activity, MIC by Agar dilution method, standard test strain 9; type: cell-based; settings: Escherichia coli, DC2, 18 h
Procedure: as §1, §2, §3

[7] = tested on: Pseudomonas aeruginosa 1592E; experiment: Antibacterial activity, MIC by Agar dilution method, standard test strain 13; type: cell-based; settings: 10^7 CFU/ml, 37° C., 18 hours
Procedure: as §1, §2, §3
13. Pseudomonas aeruginosa 1592E

Klebsiella oxytoca 1082E = experiment: Antibacterial activity, MIC by Agar dilution method, standard test strain 17; type: cell-based; settings: 10^7 CFU/ml, 37° C., 18 hours
Procedure: as §1, §2, §3

[8] = tested on: Klebsiella aerogenes 1522E; experiment: Antibacterial activity, MIC by Agar dilution method, standard test strain 18; type: cell-based; settings: Klebsiella aerogenes, 1522E, 18 h
Procedure: as §1, §2, §3
18. Klebsiella aerogenes 1522E

[9] = tested on: Staphylococcus aureus SG 511; experiment: Antibacterial activity, MIC by Agar dilution method, standard test strain 4; type: cell-based; settings: SG511, 10^7 CFU/ml, 37° C., 18 hours
Procedure: as §1, §2, §3
4. Staphylococcus aureus SG 511

T1 sequence (P05364 21-381): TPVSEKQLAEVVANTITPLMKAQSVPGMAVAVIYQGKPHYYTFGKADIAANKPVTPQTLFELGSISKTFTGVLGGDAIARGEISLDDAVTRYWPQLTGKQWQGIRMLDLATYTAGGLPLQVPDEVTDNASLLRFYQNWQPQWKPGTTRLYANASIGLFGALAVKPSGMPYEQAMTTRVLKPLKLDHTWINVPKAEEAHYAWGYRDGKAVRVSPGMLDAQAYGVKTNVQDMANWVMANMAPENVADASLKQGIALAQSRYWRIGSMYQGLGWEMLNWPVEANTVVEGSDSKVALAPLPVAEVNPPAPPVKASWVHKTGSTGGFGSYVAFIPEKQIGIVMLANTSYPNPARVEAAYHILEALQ

## CON=C(C(=O)NC1C(=O)N2C(C(=O)[O-])=C(C[n+]3nn(N)c4ccccc43)CSC12)c1csc(N)n1 [Example 18, (6R,7R)-7-[(Z)-2-(2-aminothiazol-4-yl)-2-methoxyiminoacetamido]-3-[(1-aminobenzotriazol-3-ium)methyl]-ceph-3-em-4-carboxylate]
Enterobacter cloacae P99
  MIC: 12.5 µg/mL (≈ 23.6 µM)
Escherichia coli O 55
  MIC: 0.007 µg/mL (≈ 0.0132 µM)
[1]
  Relative hydrolysis by β-lactamase: 0.0
[2]
  antibacterial activity (in words): strong activity
Staphyloccus aureus 285
  MIC: 0.781 µg/mL (≈ 1.47 µM)
[3]
  MIC: 3.12 µg/mL (≈ 5.9 µM)
Streptococcus I
  MIC Range: 0.004 to 12.5 µg/mL
Streptococcus I; 18 h
  MIC50: 0.025 µg/mL (≈ 0.0472 µM)
  MIC90: 6.25 µg/mL (≈ 11.8 µM)
Enterococcus I
  MIC: 0.007 to 0.195 µg/mL (≈ 0.0132 to 0.368 µM)
  MIC50: 0.025 µg/mL (≈ 0.0472 µM)
  MIC90: 0.049 µg/mL (≈ 0.0925 µM)
Serratia spp
  MIC: 0.013 to 0.098 µg/mL (≈ 0.0245 to 0.185 µM)
  MIC50: 0.025 µg/mL (≈ 0.0472 µM)
  MIC90: 0.049 µg/mL (≈ 0.0925 µM)
Proteus mirabilis
  MIC: 0.013 to 0.098 µg/mL (≈ 0.0245 to 0.185 µM)
  MIC50: 0.013 µg/mL (≈ 0.0245 µM)
  MIC90: 0.098 µg/mL (≈ 0.185 µM)
Escherichia coli
  MIC: 0.007 to 0.195 µg/mL (≈ 0.0132 to 0.368 µM)
  MIC50: 0.013 µg/mL (≈ 0.0245 µM)
  MIC90: 0.025 µg/mL (≈ 0.0472 µM)
Pseudomonas II
  MIC: 0.391 to 12.5 µg/mL (≈ 0.738 to 23.6 µM)
  MIC50: 1.56 µg/mL (≈ 2.95 µM)
  MIC90: 6.25 µg/mL (≈ 11.8 µM)
Proteus vulgaris
  MIC: 0.025 to 0.195 µg/mL (≈ 0.0472 to 0.368 µM)
  MIC50: 0.098 µg/mL (≈ 0.185 µM)
  MIC90: 0.195 µg/mL (≈ 0.368 µM)
Pseudomonas I
  MIC: 0.195 to 12.5 µg/mL (≈ 0.368 to 23.6 µM)
  MIC50: 1.56 µg/mL (≈ 2.95 µM)
  MIC90: 6.25 µg/mL (≈ 11.8 µM)
Streptococcus II
  MIC: 0.002 to 0.013 µg/mL (≈ 0.00378 to 0.0245 µM)
  MIC50: 0.004 µg/mL (≈ 0.00755 µM)
  MIC90: 0.007 µg/mL (≈ 0.0132 µM)
Enterobacter cloacae
  MIC Range: 0.007 to 12.5 µg/mL
Enterobacter cloacae; 18 h
  MIC50: 0.025 µg/mL (≈ 0.0472 µM)
  MIC90: 0.391 µg/mL (≈ 0.738 µM)
Morganella morganil
  MIC: 0.004 to 0.025 µg/mL (≈ 0.00755 to 0.0472 µM)
  MIC50: 0.013 µg/mL (≈ 0.0245 µM)
  MIC90: 0.025 µg/mL (≈ 0.0472 µM)
D Streptococcus II
  MIC: 3.12 to 100 µg/mL (≈ 5.9 to 189 µM)
  MIC50: 25 µg/mL (≈ 47.2 µM)
  MIC90: 50 µg/mL (≈ 94.4 µM)
Pseudomonas aeruginosa
  MIC: 1.56 to 25 µg/mL (≈ 2.95 to 47.2 µM)
  MIC50: 6.25 µg/mL (≈ 11.8 µM)
  MIC90: 12.5 µg/mL (≈ 23.6 µM)
Enterococcus II
  MIC Range: 0.004 to 25 µg/mL
Enterococcus II; 18 h
  MIC50: 0.025 µg/mL (≈ 0.0472 µM)
  MIC90: 0.098 µg/mL (≈ 0.185 µM)
Providencia rettgeri
  MIC: 0.007 to 0.195 µg/mL (≈ 0.0132 to 0.368 µM)
  MIC50: 0.025 µg/mL (≈ 0.0472 µM)
  MIC90: 0.098 µg/mL (≈ 0.185 µM)
D Streptococcus I
  MIC: 3.12 to 100 µg/mL (≈ 5.9 to 189 µM)
  MIC50: 12.5 µg/mL (≈ 23.6 µM)
  MIC90: 100 µg/mL (≈ 189 µM)
[4]
  MIC: 0.007 µg/mL (≈ 0.0132 µM)
[5]
  MIC: 0.195 µg/mL (≈ 0.368 µM)
[6]
  MIC: 0.004 µg/mL (≈ 0.00755 µM)
Escherichia coli 1507E
  MIC: 0.025 µg/mL (≈ 0.0472 µM)
Escherichia coli DC 2
  MIC: 0.025 µg/mL (≈ 0.0472 µM)
[7]
  MIC: 1.56 µg/mL (≈ 2.95 µM)
Klebsiella oxytoca 1082E
  MIC: 0.049 µg/mL (≈ 0.0925 µM)
[8]
  MIC: 0.025 µg/mL (≈ 0.0472 µM)
[9]
  MIC: 0.391 µg/mL (≈ 0.738 µM)
